In patent US20230081426A1, “COMPOUNDS AND METHODS FOR KRAS MODULATION AND INDICATIONS THEREFOR” (Plexxikon Inc., priority 2020, published 2023):

Target: T1, G12D-mutant human KRAS (amino acid residues 1-188) (Homo sapiens, UniProt P01116, G12D)
T1 construct: G12D or G12C-mutant human KRAS (amino acid residues 1-188) with FLAG tag; made in house; host or cells: E. coli
Assay: KRAS Binding Disruption Assay (AlphaScreen; biotinylated KRpep-2d analogue or RAF1-RBD), G12D
Settings: KRAS G12D; geometric mean; read-out: KRAS GMean IC50 (uM) MUTATION: G12D
Procedure: Compound binding disrupts the interaction of KRpep-2d or RAF1-RBD with KRAS, leading to a decrease in Alpha signal.
All assay components were prepared in 20 mM HEPES (pH 7.5), 100 mM NaCl, 5 mM MgCl2, 0.01% Tween-20, and 0.01% BSA. Biotinylated analogues of KRpep-2d were custom synthesized. The binding disruption assays were performed using 5-20 nM of mutant KRAS and 5-20 nM of either biotinylated KRpep-2d analogue or RAF1-RBD. 19 μL of KRAS protein and 4 μL of biotinylated KRpep-2d or RAF1-RBD were added to the wells of a 384-well plate containing 1 μL of various concentrations of test compound or DMSO vehicle. 16 wells containing KRAS, biotinylated KRpep-2d or RAF1-RBD, and 5% DMSO served as high controls. 16 wells containing KRAS only and 5% DMSO served as low controls. Binding reactions were incubated for 1 hour at 25° C., then Anti-Flag Acceptor and Streptavidin Donor Alpha beads were added at a final concentration of 10 μg/mL for an additional hour at room temperature. Alpha signal was read out on a Perkin Elmer Envision HTS instrument. The percentage inhibition at individual compound concentrations relative to high and low controls was calculated. The data were analyzed by using nonlinear regression to generate IC50 values.

T1 sequence (P01116 1-188 isoform P01116-2 G12D): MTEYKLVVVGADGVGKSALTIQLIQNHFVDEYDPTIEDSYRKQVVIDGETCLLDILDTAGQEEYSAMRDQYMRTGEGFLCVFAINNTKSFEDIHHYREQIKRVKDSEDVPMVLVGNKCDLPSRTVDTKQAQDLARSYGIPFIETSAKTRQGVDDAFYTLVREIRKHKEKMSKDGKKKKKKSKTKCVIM

IC50, 0.0001 to 10 µM:
CC(C)(CNC(=O)CO)COc1nc(N2C[C@H]3CC[C@@H](C2)N3)c2ccc(-c3cc(O)cc4ccccc34)c(F)c2n1 [P-0537, N-(3-((4-((1R,5S)-3,8-diazabicyclo[3.2.1]octan-3-yl)-8-fluoro-7-(3-hydroxynaphthalen-1-yl)quinazolin-2-yl)oxy)-2,2-dimethylpropyl)-2-hydroxyacetamide]
C=Cc1cccc2cccc(-c3ccc4c(N5C[C@H]6CC[C@@H](C5)N6)nc(OCC56CCCN5CCC6)nc4c3F)c12 [P-0538, 4-((1R,5S)-3,8-diazabicyclo[3.2.1]octan-3-yl)-8-fluoro-2-((tetrahydro-1H-pyrrolizin-7a(5H)-yl)methoxy)-7-(8-vinylnaphthalen-1-yl)quinazoline]
O=[N+]([O-])c1cccc2cncc(-c3ccc4c(N5C[C@H]6CC[C@@H](C5)N6)nc(OCC56CCCN5CCC6)nc4c3F)c12 [P-0539, 4-((1R,5S)-3,8-diazabicyclo[3.2.1]octan-3-yl)-8-fluoro-7-(5-nitroisoquinolin-4-yl)-2-((tetrahydro-1H-pyrrolizin-7a(5H)-yl)methoxy)quinazoline]
Nc1ccc(Cl)c(-c2c(Cl)cc3c(N4C[C@H]5CC[C@@H](C4)N5)nc(OCC45CCCN4CCC5)nc3c2F)c1 [P-0540, 3-(4-((1R,5S)-3,8-diazabicyclo[3.2.1]octan-3-yl)-6-chloro-8-fluoro-2-((tetrahydro-1H-pyrrolizin-7a(5H)-yl)methoxy)quinazolin-7-yl)-4-chloroaniline]
CC(C)(CO)COc1nc(N2C[C@H]3CC[C@@H](C2)N3)c2ccc(-c3cccc4cccc(Cl)c34)c(F)c2n1 [P-0541, 3-((4-((1R,5S)-3,8-diazabicyclo[3.2.1]octan-3-yl)-7-(8-chloronaphthalen-1-yl)-8-fluoroquinazolin-2-yl)oxy)-2,2-dimethylpropan-1-ol]
CS(=O)(=O)NCCN1[C@@H]2CC[C@H]1CN(c1nc(OCC34CCCN3CCC4)nc3c(F)c(-c4cc(O)cc5ccccc45)ccc13)C2 [P-0542, N-(2-((1R,5S)-3-(8-fluoro-7-(3-hydroxynaphthalen-1-yl)-2-((tetrahydro-1H-pyrrolizin-7a(5H)-yl)methoxy)quinazolin-4-yl)-3,8-diazabicyclo[3.2.1]octan-8-yl)ethyl)methanesulfonamide]
NC(=O)NCCN1[C@@H]2CC[C@H]1CN(c1nc(OCC34CCCN3CCC4)nc3c(F)c(-c4cc(O)cc5ccccc45)ccc13)C2 [P-0543, 1-(2-((1R,5S)-3-(8-fluoro-7-(3-hydroxynaphthalen-1-yl)-2-((tetrahydro-1H-pyrrolizin-7a(5H)-yl)methoxy)quinazolin-4-yl)-3,8-diazabicyclo[3.2.1]octan-8-yl)ethyl)urea]
CC(=O)NCCN1[C@@H]2CC[C@H]1CN(c1nc(OCC34CCCN3CCC4)nc3c(F)c(-c4cc(O)cc5ccccc45)ccc13)C2 [P-0544, N-(2-((1R,5S)-3-(8-fluoro-7-(3-hydroxynaphthalen-1-yl)-2-((tetrahydro-1H-pyrrolizin-7a(5H)-yl)methoxy)quinazolin-4-yl)-3,8-diazabicyclo[3.2.1]octan-8-yl)ethyl)acetamide]
NCCN1[C@@H]2CC[C@H]1CN(c1nc(OCC34CCCN3CCC4)nc3c(F)c(-c4cc(O)cc5ccccc45)ccc13)C2 [P-0545, 4-(4-((1R,5S)-8-(2-aminoethyl)-3,8-diazabicyclo[3.2.1]octan-3-yl)-8-fluoro-2-((tetrahydro-1H-pyrrolizin-7a(5H)-yl)methoxy)quinazolin-7-yl)naphthalen-2-ol]
NC1(CCO)CN(c2nc(N3C[C@H]4CC[C@@H](C3)N4)c3ccc(-c4cc(O)cc5ccccc45)c(F)c3n2)C1 [P-0546, 4-(2-(3-amino-3-(2-hydroxyethyl)azetidin-1-yl)-4-((1R,5S)-3,8-diazabicyclo[3.2.1]octan-3-yl)-8-fluoroquinazolin-7-yl)naphthalen-2-ol]
O=C1NC2(CCO1)CN(c1nc(N3C[C@H]4CC[C@@H](C3)N4)c3ccc(-c4cc(O)cc5ccccc45)c(F)c3n1)C2 [P-0547, 2-(4-((1R,5S)-3,8-diazabicyclo[3.2.1]octan-3-yl)-8-fluoro-7-(3-hydroxynaphthalen-1-yl)quinazolin-2-yl)-7-oxa-2,5-diazaspiro[3.5]nonan-6-one]
Cc1ccc2[nH]nc(C)c2c1-c1ccc2c(N3C[C@H]4CC[C@@H](C3)N4)nc(OCC34CCCN3CCC4)nc2c1F [P-0548, 4-((1R,5S)-3,8-diazabicyclo[3.2.1]octan-3-yl)-7-(3,5-dimethyl-1H-indazol-4-yl)-8-fluoro-2-((tetrahydro-1H-pyrrolizin-7a(5H)-yl)methoxy)quinazoline]
CCc1cccc2[nH]cc(-c3ncc4c(N5C[C@H]6CC[C@@H](C5)N6)nc(OCC56CCCN5CCC6)nc4c3F)c12 [P-0549, 4-((1R,5S)-3,8-diazabicyclo[3.2.1]octan-3-yl)-7-(4-ethyl-1H-indol-3-yl)-8-fluoro-2-((tetrahydro-1H-pyrrolizin-7a(5H)-yl)methoxy)pyrido[4,3-d]pyrimidine]
NC(=O)CN1[C@@H]2CC[C@H]1CN(c1nc(OCC34CCCN3CCC4)nc3c(F)c(-c4cc(O)cc5ccccc45)ccc13)C2 [P-0550, 2-((1R,5S)-3-(8-fluoro-7-(3-hydroxynaphthalen-1-yl)-2-((tetrahydro-1H-pyrrolizin-7a(5H)-yl)methoxy)quinazolin-4-yl)-3,8-diazabicyclo[3.2.1]octan-8-yl)acetamide]
CC(C)(C)OC(=O)NCCN1[C@@H]2CC[C@H]1CN(c1nc(OCC34CCCN3CCC4)nc3c(F)c(-c4cc(O)cc5ccccc45)ccc13)C2 [P-0551, tert-butyl (2-((1R,5S)-3-(8-fluoro-7-(3-hydroxynaphthalen-1-yl)-2-((tetrahydro-1H-pyrrolizin-7a(5H)-yl)methoxy)quinazolin-4-yl)-3,8-diazabicyclo[3.2.1]octan-8-yl)ethyl)carbamate]
O=C(O)CN1[C@@H]2CC[C@H]1CN(c1nc(OCC34CCCN3CCC4)nc3c(F)c(-c4cc(O)cc5ccccc45)ccc13)C2 [P-0552, 2-((1R,5S)-3-(8-fluoro-7-(3-hydroxynaphthalen-1-yl)-2-((tetrahydro-1H-pyrrolizin-7a(5H)-yl)methoxy)quinazolin-4-yl)-3,8-diazabicyclo[3.2.1]octan-8-yl)acetic acid]
CN1CC(F)(F)C[C@H]1COc1nc(N2C[C@H]3CC[C@@H](C2)N3)c2ccc(-c3cc(O)cc4ccccc34)c(F)c2n1 [P-0553, 4-(4-((1R,5S)-3,8-diazabicyclo[3.2.1]octan-3-yl)-2-(((S)-4,4-difluoro-1-methylpyrrolidin-2-yl)methoxy)-8-fluoroquinazolin-7-yl)naphthalen-2-ol]
CN1C[C@@H](F)C[C@H]1COc1nc(N2C[C@H]3CC[C@@H](C2)N3)c2ccc(-c3cc(O)cc4ccccc34)c(F)c2n1 [P-0554, 4-(4-((1R,5S)-3,8-diazabicyclo[3.2.1]octan-3-yl)-8-fluoro-2-(((2S,4S)-4-fluoro-1-methylpyrrolidin-2-yl)methoxy)quinazolin-7-yl)naphthalen-2-ol]
Oc1cc(-c2ccc3c(N4C[C@H]5CC[C@@H](C4)N5)nc(N4CC5(CCC5O)C4)nc3c2F)c2ccccc2c1 (stereo partly drawn) [P-0555, 2-(4-((1R,5S)-3,8-diazabicyclo[3.2.1]octan-3-yl)-8-fluoro-7-(3-hydroxynaphthalen-1-yl)quinazolin-2-yl)-2-azaspiro[3.3]heptan-5-ol]
Oc1cc(-c2ccc3c(N4C[C@H]5CC[C@@H](C4)N5)nc(NCC4CCCC4O)nc3c2F)c2ccccc2c1 (stereo partly drawn) [P-0556, 4-(4-((1R,5S)-3,8-diazabicyclo[3.2.1]octan-3-yl)-8-fluoro-2-(((2-hydroxycyclopentyl)methyl)amino)quinazolin-7-yl)naphthalen-2-ol]
CNCC1CN(c2nc(N3C[C@H]4CC[C@@H](C3)N4)c3ccc(-c4cc(O)cc5ccccc45)c(F)c3n2)C1 [P-0557, 4-(4-((1R,5S)-3,8-diazabicyclo[3.2.1]octan-3-yl)-8-fluoro-2-(3-((methylamino)methyl)azetidin-1-yl)quinazolin-7-yl)naphthalen-2-ol]
CCc1cccc2c1N(c1ncc3c(N4C[C@H]5CC[C@@H](C4)N5)nc(OCC45CCCN4CCC5)nc3c1F)CCC2 [P-0558, 4-((1R,5S)-3,8-diazabicyclo[3.2.1]octan-3-yl)-7-(8-ethyl-3,4-dihydroquinolin-1(2H)-yl)-8-fluoro-2-((tetrahydro-1H-pyrrolizin-7a(5H)-yl)methoxy)pyrido[4,3-d]pyrimidine]
CCc1cccc2c1N(c1ccc3c(N4C[C@H]5CC[C@@H](C4)N5)nc(OCC45CCCN4CCC5)nc3c1F)CCC2 [P-0559, 4-((1R,5S)-3,8-diazabicyclo[3.2.1]octan-3-yl)-7-(8-ethyl-3,4-dihydroquinolin-1(2H)-yl)-8-fluoro-2-((tetrahydro-1H-pyrrolizin-7a(5H)-yl)methoxy)quinazoline]
